# PMC9132363 (Journal of Medicinal Chemistry, 2022)
# Legend:
# KEAP1 = KEAP1 (Homo sapiens, UniProt Q14145); experiment: Differential scanning fluorimetry (DSF) assay; assay type: binding; conditions: 100 μM; difference from KEAP1 alone (Ti 61.3 °C)
# NRF2 in SH-SY5Y cells = experiment: Subcellular fractionation and immunoblot of NRF2; assay type: cell-based; conditions: 20 μM, 1, 2 and 4 h
# Method: SH-SY5Y cells were seeded in p100 plates (1 × 10^6 cells/plate) and treated with 20 μM compound 1d. Cytosolic and nuclear fractions were prepared as described previously.[71] Briefly, cells were washed with cold PBS and harvested by centrifugation at 1100 rpm for 10 min. The cell pellet was resuspended in 3 pellet volumes of cold buffer A (20 mm HEPES, pH 7.0, 0.15 mm EDTA, 0.015 mm EGTA, 10 mm KCl, 1% Nonidet P-40, 1 mm phenylmethylsulfonyl fluoride, 20 mm NaF, 1 mm sodium pyrophosphate, 1 mm sodium orthovanadate, and 1 μg/mL leupeptin) and incubated in ice for 30 min. Then, the homogenate was centrifuged at 500g for 5 min. The supernatants were taken as the cytosolic fraction. The nuclear pellet was resuspended in 5 volumes of cold buffer B (10 mm HEPES, pH 8.0, 0.1 mm EDTA, 0.1 mm NaCl, 25% glycerol, 1 mm phenylmethylsulfonyl fluoride, 20 mm NaF, 1 mm sodium pyrophosphate, 1 mm sodium orthovanadate, and 1 μg/mL leupeptin). After centrifugation in the same conditions indicated above, the nuclei were resuspended in loading buffer containing 0.5% SDS. […]
# (§1) Whole cell lysates were prepared in RIPA-buffer (25 mM Tris-HCl, pH 7.6, 150 mM NaCl, 1 mM EGTA, 1% Igepal, 1% sodium deoxycholate, 0.1% SDS, 1 mM PSMF, 1 mM Na3VO4, 1 mM NaF, 1 μg/mL aprotinin, 1 μg/mL leupeptin, and 1 μg/mL pepstatin). […] Immunoblots were analyzed as described previously.[48] […]
# sALS lymphoblasts = experiment: NRF2 pathway in sALS lymphoblasts; assay type: cell-based, human; conditions: 20 μM, 24 h, vs untreated sALS lymphoblasts
# From the text: (§2) Peripheral blood samples of all the individuals enrolled in this study were collected after written informed consent of the patients or their relatives (demographic information is presented in Table 9) to establish the lymphoblastoid cell lines (LCLs), by infecting peripheral blood lymphocytes with the Epstein–Barr virus (EBV), as previously described.[68] Participants or their relatives gave written informed consent. This study was approved by the Hospital Doce de Octubre and the Spanish Council of Higher Research Institutional Review Boards. All patients were diagnosed by applying the revised El Escorial criteria.[69] […] Genetic testing for SOD1, TARDBP, FUS, and C9ORF72 was performed in all cases.
# (§3) LCLs were grown in suspensions in T flasks, in an RPMI-1640 medium containing 2 mM L-glutamine, 100 μg/mL streptomycin/penicillin, and 10% (v/v) fetal bovine serum (FBS) and maintained in a humidified 5% CO2 incubator at 37 °C.
# as §1
# (§4) Total RNA extraction, reverse transcription, and quantitative polymerase chain reaction (PCR) were done as detailed in previous articles.[72] […]
# [1] = tested on: TDP-43 in lymphoblasts from ALS patients; experiment: TDP-43 phosphorylation and expression in lymphoblasts (immunoblot); assay type: cell-based, human; conditions: 20 µM, 24 hours
# Method: Figure S1. Lack of effect of compound 1d against aberrant TDP-43 phosphorylation in sporadic ALS and […]
# Representative immunoblot showing the phosphorylation status of TDP-43 in immortalized lymphocytes from control and sporadic ALS individuals. Cells were seeded at an initial density of 1 x 106 x ml-1 in the absence or presence of compound 1d (20 µM). 24 hours after compound addition, cells were harvested and processed for Western blotting analysis. The plot in the left panel (a) represents the quantification of the bands of 43 KD of pTDP-43 normalized by total-TDP-43. The densitometric analyses represent the mean ± SEM of different observations carried […]
# 43 expression (b) in lymphoblasts from ALS patients.
# (1 picture or pasted object on this page, not shown here)
# control lymphoblasts = experiment: NRF2 pathway in control lymphoblasts; assay type: cell-based, human; conditions: 20 μM, 24 h
# From the text: as §2, §3, §1, §4
# Keap1–/– MEFs = experiment: qRT-PCR of NRF2 target genes in KEAP1-deficient MEFs; assay type: cell-based, mouse; conditions: 20 μM, 4, 8 and 24 h
# Method: Human embryonic kidney (HEK) 293T cells were grown in Dulbecco’s modified Eagle’s medium (DMEM) supplemented with 10% fetal bovine serum and 80 μg/mL gentamycin. Transient transfections were performed with calcium phosphate using reagents from Sigma. The Keap1^–/– mouse embryo fibroblasts (MEFs) and their corresponding wild-type Keap1^+/+ MEFs were kindly provided by Dr. Ken Itoh (Department of Stress Response Science, Center for Advanced Medical Science, Hirosaki University, Japan). MEFs were grown in DMEM supplemented with 10% fetal bovine serum, 1% penicillin/streptomycin, and 2 mm L-glutamine. SH-SY5Y cells were grown in DMEM and Ham’s F12 supplemented with 10% fetal bovine serum (FBS) and 1% penicillin/streptomycin. The medium was changed to serum-free DMEM without antibiotics 16 h before treatments. DMF (cat. no. 242926, Sigma-Aldrich) was used at 20 μM for 16 h.
# Total RNA extraction, reverse transcription, and quantitative polymerase chain reaction (PCR) were done as detailed in previous articles.[72] Primer sequences are shown in Supporting Information Table S5. Data analysis was based on the ΔΔCT method with normalization of the raw data to housekeeping genes (Applied Biosystems). All PCRs were performed in triplicates.
# [2] = biological target: human serum albumin (HSA) (Homo sapiens, UniProt P02768); experiment: biochemical
# Sequence of human serum albumin (HSA) (P02768 25-609): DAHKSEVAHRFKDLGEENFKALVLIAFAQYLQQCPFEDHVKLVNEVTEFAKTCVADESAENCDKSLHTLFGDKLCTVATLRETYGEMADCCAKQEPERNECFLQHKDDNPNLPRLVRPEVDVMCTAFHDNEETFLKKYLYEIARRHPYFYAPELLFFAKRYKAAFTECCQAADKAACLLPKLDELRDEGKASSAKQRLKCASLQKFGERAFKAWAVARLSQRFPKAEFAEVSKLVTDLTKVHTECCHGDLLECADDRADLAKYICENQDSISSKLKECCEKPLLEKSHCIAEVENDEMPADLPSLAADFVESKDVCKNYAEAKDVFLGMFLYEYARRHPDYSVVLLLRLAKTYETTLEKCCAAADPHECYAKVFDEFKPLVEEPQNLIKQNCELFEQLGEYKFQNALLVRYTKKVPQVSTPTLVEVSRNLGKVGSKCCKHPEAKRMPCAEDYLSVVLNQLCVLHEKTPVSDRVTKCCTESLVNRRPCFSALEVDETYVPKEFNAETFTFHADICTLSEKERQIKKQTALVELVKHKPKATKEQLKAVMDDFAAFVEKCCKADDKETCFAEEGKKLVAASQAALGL
# Method: After each addition, the mixture was incubated at rt for 5 min, and then, the emission fluorescence spectra of HAS (λ = 280 nm) were measured using a Fluorometer Max-4P (Horiba Jobin Yvon). The data obtained were further processed using the Stern–Volmer and Scatchard models in GraphPad Prism 8.0 software.
# ROCK-II (ROKa) = ROCK-II (ROKa) (Rattus norvegicus, UniProt Q62868); experiment: ROCK inhibition studies (33P-ATP, Long S6 substrate peptide); assay type: biochemical
# Sequence of ROCK-II (ROKa) (Q62868 2-543 limits assumed): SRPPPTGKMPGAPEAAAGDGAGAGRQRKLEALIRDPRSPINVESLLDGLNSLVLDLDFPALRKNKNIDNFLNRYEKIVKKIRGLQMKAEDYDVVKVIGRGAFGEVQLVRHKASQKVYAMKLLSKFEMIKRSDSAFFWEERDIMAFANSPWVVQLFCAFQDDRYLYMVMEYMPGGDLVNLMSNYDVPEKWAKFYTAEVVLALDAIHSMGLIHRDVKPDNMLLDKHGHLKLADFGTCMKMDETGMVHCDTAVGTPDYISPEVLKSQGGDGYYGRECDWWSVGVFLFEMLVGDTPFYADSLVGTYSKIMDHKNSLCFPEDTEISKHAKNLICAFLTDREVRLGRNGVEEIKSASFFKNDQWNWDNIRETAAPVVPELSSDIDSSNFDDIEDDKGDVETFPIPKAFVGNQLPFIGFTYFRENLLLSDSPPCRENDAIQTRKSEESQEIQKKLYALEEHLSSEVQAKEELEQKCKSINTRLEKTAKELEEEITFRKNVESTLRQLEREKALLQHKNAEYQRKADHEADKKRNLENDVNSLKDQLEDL
# Method: ROCK-II (ROKa) (5–20 mU diluted in 50 mM Tris pH 7.5, 0.1 mM EGTA, 0.1% 2-mercaptoethanol, and 1 mg/mL BSA) was assayed against the Long S6 substrate peptide ([…]) in a final volume of 25.5 μL containing 50 mM Tris pH 7.5, 0.1 mM EGTA, 30 μM Long S6 substrate peptide, 10 mM magnesium acetate, and 0.02 mM [33P-g-ATP] (50–1000 cpm/pmol) and incubated for 30 min at room temperature. Assays were stopped by addition of 5 μL of 0.5 M (3%) orthophosphoric acid and then harvested onto P81 Unifilter plates with a wash buffer of 50 mM orthophosphoric acid.
# GSK-3β = GSK-3β (Homo sapiens, UniProt P49841); experiment: GSK-3β kinase inhibition; assay type: biochemical
# Sequence of GSK-3β (P49841 whole entry, species assumed): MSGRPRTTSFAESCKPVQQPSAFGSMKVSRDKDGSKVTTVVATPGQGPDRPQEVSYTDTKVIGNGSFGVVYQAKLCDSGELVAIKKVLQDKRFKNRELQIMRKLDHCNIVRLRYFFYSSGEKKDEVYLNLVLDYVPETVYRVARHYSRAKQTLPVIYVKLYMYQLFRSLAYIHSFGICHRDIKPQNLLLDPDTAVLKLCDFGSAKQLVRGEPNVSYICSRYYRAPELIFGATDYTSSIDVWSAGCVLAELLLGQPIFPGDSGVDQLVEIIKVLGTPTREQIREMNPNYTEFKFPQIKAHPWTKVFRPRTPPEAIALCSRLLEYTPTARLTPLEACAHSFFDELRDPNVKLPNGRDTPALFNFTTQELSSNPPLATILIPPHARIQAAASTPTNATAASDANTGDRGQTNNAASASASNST
# Sequence of KEAP1 (Q14145 whole entry): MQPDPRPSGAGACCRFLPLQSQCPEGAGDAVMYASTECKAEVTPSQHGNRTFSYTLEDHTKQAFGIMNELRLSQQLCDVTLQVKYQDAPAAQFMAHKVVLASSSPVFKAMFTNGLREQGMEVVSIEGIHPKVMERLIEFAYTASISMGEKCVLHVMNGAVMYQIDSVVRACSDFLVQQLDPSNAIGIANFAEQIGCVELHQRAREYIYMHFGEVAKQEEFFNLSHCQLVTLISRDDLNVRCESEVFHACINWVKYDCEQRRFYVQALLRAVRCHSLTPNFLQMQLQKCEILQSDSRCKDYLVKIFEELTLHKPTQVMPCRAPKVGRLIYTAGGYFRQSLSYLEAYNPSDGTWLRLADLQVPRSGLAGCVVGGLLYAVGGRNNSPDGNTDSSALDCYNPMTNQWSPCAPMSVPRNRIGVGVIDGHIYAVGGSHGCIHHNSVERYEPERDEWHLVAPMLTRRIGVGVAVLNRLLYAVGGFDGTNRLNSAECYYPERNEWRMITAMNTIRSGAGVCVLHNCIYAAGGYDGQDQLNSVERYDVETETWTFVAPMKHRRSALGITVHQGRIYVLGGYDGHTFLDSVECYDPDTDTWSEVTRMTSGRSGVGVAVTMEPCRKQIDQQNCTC
smiles,measurement,setting,value
"O=C(CCc1ccc(O)c(O)c1)N1CCCN(S(=O)(=O)c2cccc3cnccc23)CC1 [Compound 1d, 3-(3,4-Dihydroxyphenyl)-1-(4-(isoquinolin-5-ylsulfonyl)-1,4-diazepan-1-yl)propan-1-one]",ΔTi (± S.E.M.),KEAP1,+0.2 (± 0.1) °C
same,subcellular distribution of NRF2,NRF2 in SH-SY5Y cells,induced a significant accumulation of NRF2 in the nucleus
same,NRF2 and activity of its signaling pathway,sALS lymphoblasts,did not produce a significant increase
same,ability to reduce TDP-43 expression,[1],negative results
same,ability to reduce aberrant TDP-43 phosphorylation,[1],negative results
same,NEF2L2 mRNA levels,control lymphoblasts,did not produce changes
same,levels of the NRF2 protein,control lymphoblasts,significantly increased
same,expression of HMOX1,Keap1–/– MEFs,to a lesser extent than in the wild-type cells
same,expression of NQO1,Keap1–/– MEFs,not capable of inducing
same,Kd,[2],1260 nM
same,remaining activity at 10 µM,"ROCK-II (ROKa); 0.5 h, 10 microM, supplementary CSV, read-out: ROCK2 activity @ 10microM",14.6 ± 4.1%
same,IC50,"ROCK-II (ROKa); Table 3, read-out: ROCK2 inhibition IC50",730 nM
same,ROCK2 inhibition potency compared with fasudil,ROCK-II (ROKa); in words,potency similar to the reference compound
same,activity as an inhibitor of the kinase GSK-3β,GSK-3β,negative results
